From paper PMC7413254 (Nature Communications, 2020)
Values joined by “and” are separate entries in the source; they are usually repeats but may differ in a detail not shown here. Identical values can stand only once. Like-named read-outs stand apart in the source and are kept apart here.

Key:
PfCRT^Dd2 [1] = target: T1, PfCRT^Dd2 (Plasmodium falciparum, UniProt Q9N623, A220S/I356T/K76T/M74I/N326S/N75E/Q271E/R371I); assay: [3H]CQ uptake into Xenopus oocytes, cis-inhibition by unlabelled solute; format: cell-based
T1 sequence (Q9N623 whole entry A220S/I356T/K76T/M74I/N326S/N75E/Q271E/R371I): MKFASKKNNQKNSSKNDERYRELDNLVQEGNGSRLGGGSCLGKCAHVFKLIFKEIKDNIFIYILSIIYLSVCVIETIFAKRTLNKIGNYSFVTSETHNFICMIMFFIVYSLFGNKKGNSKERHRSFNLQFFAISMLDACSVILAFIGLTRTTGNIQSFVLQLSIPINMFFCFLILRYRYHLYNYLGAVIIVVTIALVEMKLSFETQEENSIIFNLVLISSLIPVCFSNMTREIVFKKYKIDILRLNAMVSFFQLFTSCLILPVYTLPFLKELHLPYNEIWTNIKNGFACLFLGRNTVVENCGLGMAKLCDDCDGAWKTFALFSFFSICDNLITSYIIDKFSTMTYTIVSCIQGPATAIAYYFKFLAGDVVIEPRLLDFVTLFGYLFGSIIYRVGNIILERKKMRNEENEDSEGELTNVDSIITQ
Outline: (§1)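 PfCRT-expressing and control oocytes: ND96 pH 5.5 → 1.5 h at 27.5 °C → ice-cold ND96 wash → 10% SDS lysis → scintillation count.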

PfCRT^Ecu1110 [2] = target: T2, PfCRT^Ecu1110 (Plasmodium falciparum, UniProt Q9N623, A220S/I356L/K76T/N326D); assay: as above; format: cell-based
T2 sequence (Q9N623 whole entry A220S/I356L/K76T/N326D): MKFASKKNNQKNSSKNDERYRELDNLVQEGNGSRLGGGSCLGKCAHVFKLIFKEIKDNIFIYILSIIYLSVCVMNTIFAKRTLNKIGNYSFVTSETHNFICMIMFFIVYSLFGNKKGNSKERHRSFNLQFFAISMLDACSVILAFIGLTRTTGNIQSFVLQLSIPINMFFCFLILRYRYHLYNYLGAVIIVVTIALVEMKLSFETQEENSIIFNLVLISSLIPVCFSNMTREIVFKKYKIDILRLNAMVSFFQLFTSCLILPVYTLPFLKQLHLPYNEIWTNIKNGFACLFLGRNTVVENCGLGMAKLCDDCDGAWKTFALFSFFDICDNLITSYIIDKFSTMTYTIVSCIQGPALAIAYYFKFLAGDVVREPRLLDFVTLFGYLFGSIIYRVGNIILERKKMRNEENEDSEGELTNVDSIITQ
Outline: as §1

PfCRT [3] = assay: Potential co-substrates tested for influx of VF-6 via PfCRT into the oocyte; format: cell-based, Plasmodium falciparum; set-up: key: X: Compounds that have been tested as potential co-substrates but are not required for influx of VF-6 via PfCRT into the oocyte
non-expressing oocytes [4] = assay: cells; format: cell-based, Xenopus laevis; settings: Xenopus laevis, Oocyte
Outline: as §1

PfCRT^3D7 [5] = target: T3, PfCRT^3D7 (Plasmodium falciparum, UniProt Q8IBZ9); assay: cell-based; format: cell-based
T3 sequence (Q8IBZ9 59-398): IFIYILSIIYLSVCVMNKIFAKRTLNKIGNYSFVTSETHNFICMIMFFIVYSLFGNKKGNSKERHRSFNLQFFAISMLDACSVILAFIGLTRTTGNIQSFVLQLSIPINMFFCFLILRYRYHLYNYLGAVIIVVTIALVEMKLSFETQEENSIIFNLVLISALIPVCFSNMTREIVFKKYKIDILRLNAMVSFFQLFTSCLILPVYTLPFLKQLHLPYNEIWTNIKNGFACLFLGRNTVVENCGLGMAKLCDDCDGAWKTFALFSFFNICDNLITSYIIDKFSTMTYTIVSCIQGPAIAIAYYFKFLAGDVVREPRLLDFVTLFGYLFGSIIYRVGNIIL
Outline: as §1

PfCRT^Dd2 [6] = target: T1, PfCRT^Dd2; assay: cell-based; format: cell-based; settings: […]; for activity at 45000 µM: [test solute]i = 45 mM (30 mM for some solutes due to solubility)
Outline: (§2)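 Transport measured in Xenopus oocytes expressing the transporters, 1.5 h at 27.5 °C in ND96 pH 5.5 unless noted. For trans-stimulation, VF-6 injected in 25 nL ND96 at pH 5.0–7.0 or Na^+-free (choline) buffer; intracellular levels based on ~400 nL oocyte volume. Ten oocytes per treatment, ≥4 experiments.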

PfCRT^3D7 [7] = target: T3, PfCRT^3D7; assay: cell-based; format: cell-based; remark: listed apart in the source
Outline: as §2

PfCRT^Ecu1110 [8] = target: T2, PfCRT^Ecu1110; assay: cell-based; format: cell-based; settings: […]
Outline: as §2

PfNT1 = target: T4, PfNT1 (Plasmodium falciparum, UniProt Q8IDM6); assay: cell-based; format: cell-based; settings: […]
T4 construct: expressed in transfected cells; host or cells: Xenopus laevis oocytes (stage V-VI), cRNA-injected
T4 sequence (Q8IDM6 whole entry): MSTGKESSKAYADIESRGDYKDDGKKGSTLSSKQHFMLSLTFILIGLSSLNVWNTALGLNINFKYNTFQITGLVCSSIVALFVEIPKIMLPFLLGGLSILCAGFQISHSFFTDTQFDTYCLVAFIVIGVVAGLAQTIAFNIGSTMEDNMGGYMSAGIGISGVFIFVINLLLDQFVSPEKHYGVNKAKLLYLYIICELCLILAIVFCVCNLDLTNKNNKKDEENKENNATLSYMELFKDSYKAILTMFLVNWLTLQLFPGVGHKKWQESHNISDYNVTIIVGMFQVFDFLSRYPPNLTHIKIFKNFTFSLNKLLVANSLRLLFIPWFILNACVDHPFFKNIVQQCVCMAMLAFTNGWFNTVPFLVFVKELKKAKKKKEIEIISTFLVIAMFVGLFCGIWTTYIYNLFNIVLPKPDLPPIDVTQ
Outline: as §2

PfCRT [9] = assay: Test of solutes as potential co-substrates for influx of VF-6 via PfCRT into the oocyte; format: cell-based, Plasmodium falciparum; set-up: key: X: Compounds that have been tested as potential co-substrates but are not required for influx of VF-6 via PfCRT into the oocyte; settings: X = tested
non-expressing oocytes [10] = format: cell-based, Xenopus laevis
Outline: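 Oocytes (ten per treatment, ≥4 independent frogs/days) were preloaded by injecting VF-6 in 25 nL ND96 at pH 5.0, 5.5, 6.0 or 7.0, or Na^+-free choline buffer, then uptake run 1.5 h, 27.5 °C, ND96 pH 5.5 by default. Internal concentrations assumed ~400 nL oocyte volume.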

[11] = read-out: PfCRT-mediated [3H]CQ transport, cis-inhibition (% PfCRTDd2 control)
[12] = read-out: Uptake of [3H]CQ (% PfCRTDd2 control), cis-inhibition, PfCRTDd2, SEM
[13] = read-out: PfCRT-mediated [3H]CQ transport, cis-inhibition (% PfCRTEcu1110 control)
[14] = read-out: Uptake of [3H]CQ (% PfCRTDd2 control), cis-inhibition, PfCRTEcu1110, SEM
[15] = read-out: Uptake of [3H]CQ (% PfCRTEcu1110 control), cis-inhibition
[16] = read-out: [3H]CQ transport (% PfCRTEcu1110 control), cis-inhibition, PfCRTEcu1110, SEM
[17] = read-out: Uptake of [3H]CQ (% PfCRTDd2 control), cis-inhibition, non-expressing oocytes, SEM
[18] = read-out: Uptake of [3H]CQ (% non-expressing oocyte control), cis-inhibition
[19] = read-out: Uptake of [3H]CQ (% PfCRT3D7 control), cis-inhibition
[20] = read-out: Uptake of [3H]CQ (% PfCRTDd2 control), cis-inhibition, PfCRT3D7, SEM
[21] = read-out: PfCRT-mediated [3H]CQ transport, trans-stimulation (% PfCRT3D7 control)
[22] = read-out: Uptake of [3H]CQ (% PfCRT3D7 control), trans-stimulation
[23] = read-out: Uptake of [3H]CQ (% PfCRTDd2 control), trans-stimulation, PfCRT3D7, SEM
[24] = read-out: Uptake of [3H]CQ (% PfCRTDd2 control), trans-stimulation, PfNT1, SEM
[25] = read-out: Uptake of [3H]CQ (% PfNT1 control), trans-stimulation

N[C@@H](Cc1ccc(O)cc1)C(=O)O [L-tyrosine]
inhibition at 500 µM (PfCRT^Dd2 [1]; [11]): 94 ± 4.6%
inhibition at 2000 µM (PfCRT^Dd2 [1]; [11]): 97 ± 3.5%
inhibition at 500 µM (PfCRT^Dd2 [1]; [12]): 96 ± 3.2%
inhibition at 1000 µM (PfCRT^Dd2 [1]; [12]): 98 ± 2.3%
inhibition at 2000 µM (PfCRT^Dd2 [1]; [12]): 99 ± 1.4%
inhibition at 500 µM (PfCRT^Ecu1110 [2]; [13]): 96 ± 5.3%
inhibition at 2000 µM (PfCRT^Ecu1110 [2]; [13]): 95 ± 3.4%
inhibition at 500 µM (PfCRT^Ecu1110 [2]; [14]): 32 ± 1%
inhibition at 1000 µM (PfCRT^Ecu1110 [2]; [14]): 32 ± 1.1%
inhibition at 2000 µM (PfCRT^Ecu1110 [2]; [14]): 32 ± 1.7%
inhibition at 500 µM (PfCRT^Ecu1110 [2]; [15]): 99 ± 1.4%
inhibition at 1000 µM (PfCRT^Ecu1110 [2]; [15]): 101 ± 1.4%
inhibition at 2000 µM (PfCRT^Ecu1110 [2]; [15]): 97 ± 1.5%
inhibition at 500 µM (PfCRT^Ecu1110 [2]; [16]): 29 ± 0.7%
inhibition at 1000 µM (PfCRT^Ecu1110 [2]; [16]): 29 ± 1.5%
inhibition at 2000 µM (PfCRT^Ecu1110 [2]; [16]): 29 ± 0.5%
Tested as potential co-substrate but not required for influx of VF-6 via PfCRT into the oocyte (PfCRT [3]): X
inhibition at 500 µM (non-expressing oocytes [4]; [17]): 2.5 ± 0.03%
inhibition at 1000 µM (non-expressing oocytes [4]; [17]): 4.2 ± 0.03%
inhibition at 2000 µM (non-expressing oocytes [4]; [17]): 2.9 ± 0.04%
inhibition at 500 µM (non-expressing oocytes [4]; [18]): 96 ± 4.2%
inhibition at 1000 µM (non-expressing oocytes [4]; [18]): 99 ± 5.3%
inhibition at 2000 µM (non-expressing oocytes [4]; [18]): 101 ± 3.9%
inhibition at 500 µM (PfCRT^3D7 [5]; [19]): 99 ± 4.7%
inhibition at 1000 µM (PfCRT^3D7 [5]; [19]): 101 ± 3.8%
inhibition at 2000 µM (PfCRT^3D7 [5]; [19]): 99 ± 4.7%
inhibition at 500 µM (PfCRT^3D7 [5]; [20]): 2.8 ± 0.07%
inhibition at 1000 µM (PfCRT^3D7 [5]; [20]): 2.5 ± 0.04%
inhibition at 2000 µM (PfCRT^3D7 [5]; [20]): 3.1 ± 0.03%
activity at 5000 µM (PfCRT^Dd2 [6]; pH 5.5, read-out: PfCRT-mediated [3H]CQ transport, trans-stimulation (% PfCRTDd2 control), [test solute]i = 5 mM (intracellular), PfCRTDd2 oocytes, normalised to oocyte type control): 99 ± 2.6%
activity at 5000 µM (PfCRT^Dd2 [6]; pH 5.5, read-out: Uptake of [3H]CQ (% PfCRTDd2 control), trans-stimulation, PfCRTDd2, total [3H]CQ transport, [test solute]i = 5 mM (intracellular), mean ± SEM, SEM): 101 ± 3.3%
activity at 5000 µM (PfCRT^Dd2 [6]; pH 5.5, read-out: Uptake of [3H]CQ (% PfCRTDd2 control), trans-stimulation, PfCRTDd2 oocytes, [test solute]i = 5 mM, total [3H]CQ transport, normalised to the oocyte type control): 101 ± 3.3%
activity at 45000 µM (PfCRT^Dd2 [6]; pH 5.5, read-out: Uptake of [3H]CQ (% PfCRTDd2 control), trans-stimulation, PfCRTDd2 oocytes, total [3H]CQ transport, normalised to the oocyte type control): 96 ± 2.4%
activity at 5000 µM (PfCRT^Dd2 [6]; pH 5.5, read-out: [3H]CQ transport (% PfCRTDd2 control), trans-stimulation, PfCRTDd2, trans-stimulation, [test solute]i = 5 mM (injected), PfCRT-mediated component (background subtracted), mean ± SEM, SEM): 99 ± 2.6%
activity at 45000 µM (PfCRT^Dd2 [6]; pH 5.5, read-out: [3H]CQ transport (% PfCRTDd2 control), trans-stimulation, PfCRTDd2, trans-stimulation, PfCRT-mediated component (background subtracted), mean ± SEM, SEM): 94 ± 3.3%
[3H]CQ transport (% PfCRT3D7 control), trans-stimulation, PfCRT3D7 (PfCRT^3D7 [7]; SEM): 0.3 ± 0.04 % PfCRT3D7 control
activity at 5000 µM (PfCRT^3D7 [7]; [21]): 97 ± 3.4%
activity at 45000 µM (PfCRT^3D7 [7]; [21]): 98 ± 2.2%
activity at 5000 µM (PfCRT^3D7 [7]; [22]): 99 ± 2.2%
activity at 45000 µM (PfCRT^3D7 [7]; [22]): 100 ± 2.4%
activity at 5000 µM (PfCRT^3D7 [7]; [23]): 3.3 ± 0.04%
activity at 45000 µM (PfCRT^3D7 [7]; [23]): 3.3 ± 0.01%
activity at 5000 µM (PfCRT^Ecu1110 [8]; pH 5.5, read-out: PfCRT-mediated [3H]CQ transport, trans-stimulation (% PfCRTEcu1110 control), [test solute]i = 5 mM (intracellular), PfCRTEcu1110 oocytes, normalised to oocyte type control): 97 ± 1.8%
activity at 5000 µM (PfCRT^Ecu1110 [8]; pH 5.5, read-out: Uptake of [3H]CQ (% PfCRTEcu1110 control), trans-stimulation, PfCRTEcu1110 oocytes, [test solute]i = 5 mM, total [3H]CQ transport, normalised to the oocyte type control): 99 ± 2.6%
activity at 45000 µM (PfCRT^Ecu1110 [8]; pH 5.5, read-out: Uptake of [3H]CQ (% PfCRTEcu1110 control), trans-stimulation, PfCRTEcu1110 oocytes, [test solute]i = 45 mM (30 mM for some solutes due to solubility), total [3H]CQ transport, normalised to the oocyte type control): 100 ± 3.1%
activity at 5000 µM (PfCRT^Ecu1110 [8]; read-out: Uptake of [3H]CQ (% PfCRTDd2 control), trans-stimulation, PfCRTEcu1110, total [3H]CQ transport, [test solute]i = 5 mM (intracellular), mean ± SEM, SEM): 35 ± 2.1%
activity at 45000 µM (PfCRT^Ecu1110 [8]; read-out: Uptake of [3H]CQ (% PfCRTDd2 control), trans-stimulation, PfCRTEcu1110, total [3H]CQ transport, [test solute]i = 45 mM (intracellular; 30 mM for some solutes due to solubility), mean ± SEM, SEM): 36 ± 1.8%
activity at 5000 µM (PfNT1; [24]): 2.2 ± 0.02%
activity at 45000 µM (PfNT1; [24]): 2.2 ± 0.02%
activity at 5000 µM (PfNT1; [25]): 100 ± 3.7%
activity at 45000 µM (PfNT1; [25]): 99 ± 2.2%
Tested as potential co-substrate but not required for influx of VF-6 via PfCRT into the oocyte (PfCRT [9]): X
Uptake of [3H]CQ (% non-expressing oocyte control), trans-stimulation (non-expressing oocytes [10]): 99 ± 3.3 % non-expressing oocyte control and 98 ± 4.2 % non-expressing oocyte control
Uptake of [3H]CQ (% PfCRTDd2 control), trans-stimulation, non-expressing oocytes (non-expressing oocytes [10]; SEM): 2.4 ± 0.01 % PfCRTDd2 control and 2.5 ± 0.01 % PfCRTDd2 control
